In US11400082B2, “Methods of treating elevated plasma cholesterol” (Montréal Heart Institute, priority 2017, dated 2022):
Several values for one entry are separate records, joined by “and”; a condition that tells them apart may be missing. Equal values may be shown once. Read-outs that look alike come from different tables or passages of the source.

Key:
LDLR protein [1] = type: cell-based, human
Method: (§1) For sterol-regulated conditions, HepG2 cells were incubated in 5% LPDS, 50 μM mevastatin, and 50 μM mevalonolactone in the absence (-sterols) or presence of 1 μg/ml 25-hydroxycholesterol and 10 μg/ml cholesterol (+sterols). For inhibitor treatments HepG2 cells were treated with DMSO or 10 μM compounds 2 in combination with U0126 (25 μM, catalog no. 9903, Cell Signaling Technology), Cycloheximide (CHX; 20 μg/ml, catalog no. C7698, Sigma-Aldrich), PD153035 (20 μM, catalog no. 14879, Cayman Chemical), bisindolylmaleimide I (BIM; 10 μM, catalog no. 13298, Cayman Chemical), H-89 (10 μM, catalog no. 10010556, Cayman Chemical), Dorsomorphin (5 μM, catalog no. 11967, Cayman Chemical) or 5-Azacytidine (10 μM, catalog no. A2385, Sigma-Aldrich).
Treated cells from Example 28 were washed three times in phosphate-buffered saline (PBS) and lysed in radioimmune precipitation assay buffer (50 mM Tris/HCl, pH 8.0, 1% (v/v) Nonidet P-40, 0.5% sodium deoxycholate, 150 mM NaCl, and 0.1% (v/v) SDS) supplemented with a complete protease inhibitor mixture (catalog no. 11 697 498 001, Roche Applied Science). […] Unsaturated films were numerized using the high resolution CanoScan 9000F scanner and corresponding bands were quantified using the ImageJ software (NIH). Relative quantification of LDLR protein levels were normalized to that of actin and compared to vehicle (DMSO) herein determined as 1.

LDLR protein [2] = test: Western blot analysis, relative quantification of LDLR protein levels; type: cell-based, human; settings: overnight, hepatoma cells (HepG2, FIG. 13), normalized to actin, vehicle (DMSO) = 1
Method: as §1
Treated cells from Example 28 were washed three times in phosphate-buffered saline (PBS) and lysed in radioimmune precipitation assay buffer (50 mM Tris/HCl, pH 8.0, 1% (v/v) Nonidet P-40, 0.5% sodium deoxycholate, 150 mM NaCl, and 0.1% (v/v) SDS) supplemented with a complete protease inhibitor mixture (catalog no. 11 697 498 001, Roche Applied Science). Proteins were separated by 8% SDS polyacrylamide gel electrophoresis, blotted on nitrocellulose membranes (Bio-Rad), and blocked for 1 h in Tris-buffered saline-Tween 20 (TBS-T; 50 mM Tris-HCl, pH 7.5, 150 mM NaCl, 0.1% Tween 20) containing 5% nonfat dry milk. Membranes were then incubated overnight in TBS-T supplemented with 1% nonfat milk and the indicated antibodies; goat anti-human LDLR (1:1000; catalog no. AF2148, R&D Systems), rabbit anti-actin (1:5000; catalog no. A2066, Sigma-Aldrich). Appropriate HRP-conjugated secondary antibodies (1:10,000; GE healthcare) were used for detection using the Western Lightning Ultra chemiluminescence kit (catalog no. NEI112001EA, PerkinElmer Life Sciences) and BioFlex EC Films (catalog no. CLEC810, InterScience). Unsaturated films were numerized using the high resolution CanoScan 9000F scanner and corresponding bands were quantified using the ImageJ software (NIH). Relative quantification of LDLR protein levels were normalized to that of actin and compared to vehicle (DMSO) herein determined as 1.

[3] = Cell viability assay (MTT); type: cell-based; settings: human; overnight incubation, viability relative to DMSO
Method: Following incubation, media was replaced and cells incubated for 4 h with 100 μL of phenol red-free DMEM containing 0.5 mg/mL of MTT (3-[4,5-dimethylthiazol-2-yl]-2,5-diphenyltetrazolium bromide; thiazolyl blue; catalog no. M5655, Sigma-Aldrich). Afterwards, media was removed and converted dye solubilized with 100 μL acidic isopropanol (0.06 N) and absorbance measured at a wavelength of 570 nm with background subtraction at 650 nm. Arbitrary units of cell viability of a given example were determined relative to equal volume of DMSO (vehicle) for each concentration used.

Row | SMILES | LDLR Fold Change 10 μM (LDLR protein [2]) | LDLR Fold Change 10 nM (LDLR protein [2]) | also measured
1 | C[C@@H]1C[C@@H]([C@H](O)CC2CC(=O)NC(=O)C2)C(=O)[C@@H](C)C1 [CHX, Cycloheximide] | – | – | effect of combined inhibitor on increase of LDLR by Compound 2 (LDLR protein [1]; HepG2 cells, 10 μM Compound 2 in combination with inhibitor (U0126 25 μM, CHX 20 μg/ml), FIG. 19): block increase of LDLR by Compound 2
2 | O=C(NO)c1ncc(CNc2ccc(F)cc2)c(CO)c1O [Compound 1, 5-[(4-fluoro-phenylamino)-methyl]-3-hydroxy-4-hydroxymethyl-pyridine-2-carboxylic acid hydroxyamide] | 6.9 | – | CC50 [3]: 120 µM
3 | O=C(NO)c1ncc(COc2ccc(F)c(Cl)c2)c(CO)c1O [Compound 3, 5-(3-chloro-4-fluoro-phenoxymethyl)-3-hydroxy-4-hydroxymethyl-pyridine-2-carboxylic acid hydroxyamide] | 5.6 | – | CC50 [3]: 11 µM
4 | O=C(NCc1ccc(F)c(Cl)c1)c1cnc(C(=O)NO)c(O)c1CO [Compound 4, N^5-(3-chloro-4-fluorobenzyl)-N^2,3-dihydroxy-4-(hydroxymethyl)pyridine-2,5-dicarboxamide] | 2.7 | – | –
5 | CC1(C)OCc2c(CNCc3ccc(F)c(Cl)c3)cnc(C(=O)NO)c2O1.Cl [Compound 5, 5-{(1-3-chloro-4-fluoro-phenyl)aminomethyl} 2,2-dimethyl-4H-[1,3]dioxino[4,5-c]pyridine-8-carboxylic acid hydroxamide] | 2.4 | – | –
6 | O=C(NO)c1ncc(CCc2ccc(F)cc2)c(CO)c1O [Compound 6, 5-[2-(4-fluoro-phenyl)-ethyl]-3-hydroxy-4-hydroxymethyl-pyridine-2-carboxylic acid hydroxamide] | 2.3 | 1.5 | CC50 [3]: 39 µM
7 | COc1ccc(COCc2cnc(C(=O)O)c(O)c2C)cc1 [Compound 7, 5-(4-methoxy-benzyloxymethyl)-3-hydroxy-4-methyl-pyridine-2-carboxylic acid] | 1.9 and 2-3 | 1.7 | –
8 | COC(=O)c1ncc(COCc2ccc(OC)cc2)c(C)c1O [Compound 8, 5-(4-methoxy-benzyloxymethyl)-3-hydroxy-4-methyl-pyridine-2-carboxylic acid methyl ester] | 1.7 | 1.7 | –
9 | COc1ccc(COCc2cnc(C)c3c2COC(C)(C)O3)cc1 [Compound 9, 5-((4-methoxybenzyloxy)methyl)-2,2,8-trimethyl-4H-[1,3]dioxino[4,5-c]pyridine] | 1.4 | – | –
10 | COC(=O)c1ncc(COCc2ccc(OC)cc2)c2c1OC(C)(C)OC2 [Compound 10, methyl 5-((4-methoxybenzyloxy)methyl)-2,2-dimethyl-4H-[1,3] dioxino[4,5-c]pyridine-8-carboxylate] | 1.2 | 1.7 | –
11 | COc1c(C(=O)NO)ncc(C(=O)NCc2ccc(F)cc2)c1CO [Compound 19, 4-hydroxymethyl-3-methoxy-pyridine-2,5-dicarboxylic acid 5-(4-fluoro-benzylamide) 2-hydroxyamide] | – | – | CC50 [3]: 6.6 µM
12 | COC(=O)c1ncc(C(=O)NCc2ccc(F)c(Cl)c2)c2c1OC(C)(C)OC2 [Compound 25, 2,2-dimethyl-4H-[1,3]dioxino[4,5-c]pyridine-5,8-dicarboxylic acid 5-(3-chloro-4-fluoro-benzylamide)-8-(methyl ester)] | 1.9 | – | –
13 | Cc1ncc(COc2ccc(F)cc2)c2c1OC(C)(C)OC2 [Compound 26, 5-((4-fluorophenoxy)methyl)-2,2-dimethyl-4H-[1,3]dioxino[4,5-c]picoline] | 1.5 | 1 | –
14 | Cc1ncc(COc2ccc(F)cc2)c(CO)c1O [Compound 27, 5-((4-fluorophenoxy)methyl)-3-hydroxy-4-(hydroxymethyl)picoline] | 1.2 | 0.6 | –
15 | N#CC(=C(/N)Sc1ccccc1N)/C(C#N)=C(\N)Sc1ccccc1N [Compound U0126, U0126] | – | – | effect of combined inhibitor on increase of LDLR by Compound 2 (LDLR protein [1]): block increase of LDLR by Compound 2
